PMC10120551, “Novel Glu-based pyrazolo[3,4-d]pyrimidine analogues: design, synthesis and biological evaluation as DHFR and TS dual inhibitors” (Journal of Enzyme Inhibition and Medicinal Chemistry, 2023)

Legend:
SF-295 = assay: cells; conditions: Homo sapiens
UO-31 = assay: cells; conditions: Homo sapiens
OVCAR-5 = conditions: OVCAR-5, Ovarian cancer; five-dose 0.01–100 µM
OVCAR-8 = assay: cells; conditions: Homo sapiens
TK-10 = assay: cells; conditions: Homo sapiens
MALME-3M = conditions: Melanoma, five-dose 0.01–100 µM
CCRF-CEM = assay: cells; conditions: Homo sapiens
MCF-7 (Breast cancer) = assay: MTT cytotoxicity assay; type: cell-based, human
Description: (§1) The MTT assay was carried out according to the procedure cited earlier. Briefly, in a 96-well plate, either cancer or normal cells were seeded (10^6 cells/cm^2; 100 µL/well) and incubated for 12 h at 37 °C and CO2 (5%), then serial dilutions of compound 6i were added and incubated for 48 h using DMSO control (0.5% V/V). MTT (3-(4,5-dimethylthiazoyl)-2,5-diphenyl-tetrazolium bromide; Cat. No. M-5655) 5 mg/mL was then added. After 4 h incubation, the formed MTT formazan crystals were solubilised by 10% Triton X-100 plus 0.1 N HCl in anhydrous isopropanol. The absorbance was read using a Bioline plate reader at λ570–630 nm[25–29]. The selectivity of 6i towards HSF cells was also determined as follows[30]^,[31]: SI=IC50HSF cells/IC50of cancer cells

PC-3 (Prostate cancer) = assay: MTT cytotoxicity assay; type: cell-based, human
Description: as §1

MDA-MB-231/ATCC = conditions: Breast cancer, five-dose 0.01–100 µM
KM12 [1] = conditions: KM12, Colon cancer; five-dose 0.01–100 µM
HS 578 T = assay: cells; conditions: Homo sapiens
OVCAR-4 = assay: cells; conditions: Homo sapiens
RPMI-8226 = conditions: RPMI-8226, Leukaemia; five-dose 0.01–100 µM
OVCAR-3 = assay: cells; conditions: Homo sapiens
HT29 = assay: cells; conditions: Homo sapiens
SK-MEL-28 = conditions: SK-MEL-28, Melanoma; five-dose 0.01–100 µM
EKVX = assay: cells; conditions: Homo sapiens
SK-MEL-5 = assay: cells; conditions: Homo sapiens
SN12C = conditions: Renal cancer, five-dose 0.01–100 µM
M14 = assay: cells; conditions: Homo sapiens
T-47D = assay: cells; conditions: Homo sapiens, T47D
NCI-H522 = assay: cells; conditions: Homo sapiens
KM12 [2] = assay: cells; conditions: Homo sapiens
MCF-7 cells = assay: Cell cycle analysis (PI, flow cytometry); type: cell-based, human; conditions: MCF-7, 10 µM, 48 h; DMSO control 24.95%
Description: Figure 5. Flow cytometric analyses: cell cycle distribution analysis using PI staining method in which MCF-7 cells were treated by 6i (10 µM) and DMSO (negative control; NC) for 48 h; (A) 6i, (B) DMSO, (C) cells percentage in different phases (G0-G1, S, G2/M); apoptotic induction using annexin-V-FITC/PI staining method in which cancer cells were treated by 6i (10 µM) and DMSO (negative control; NC) for 24 h; (D) 6i, (E) DMSO, (F) histogram for induction of apoptosis.
The cell cycle assay was carried out according to the previously reported[36]^,[37]. Briefly, in a six-well plate, 2 ml of MCF-7 cells were seeded per well and incubated overnight at 37 °C and CO2 (5%). After 12 h incubation with serum-free medium, they were treated with 10 μM of 6i, incubated for 48 h, then washed twice with 1× PBS, trypsinised and centrifuged for 5 min (500 xg) at 4 °C. And then the cell pellet, in ice-cold 1× PBS, was fixed with absolute ethanol at −20 °C for 2 h, washed with 1× PBS ice-cold solution and finally stained with propidium iodide (PI)/RNase (Abcam, ab139418) for 0.5 h at 25 °C in the dark. flow cytometry determined the DNA content in cell phases using BD FACS Calibur[36]^,[37].

CCOC(=O)CC[C@H](NC(=O)c1ccc(NC(=O)Cn2cnc3c(c(C)nn3-c3ccc(Br)cc3)c2=O)cc1)C(=O)OCC [Compound 6i]
GI50 (SF-295; SF-295): 14.2 µM | CC50 (SF-295; SF-295, read-out: LC50): 71.6 µM | GI50 (UO-31; UO-31): 18.1 µM | CC50 (UO-31; UO-31, read-out: LC50): > 100 µM | TGI (OVCAR-5): 56.3 µM | GI50 (OVCAR-8; OVCAR-8): 8.17 µM | CC50 (OVCAR-8; OVCAR-8, read-out: LC50): > 100 µM | GI50 (TK-10; TK-10): 31.3 µM | CC50 (TK-10; TK-10, read-out: LC50): > 100 µM | TGI (MALME-3M): 29.9 µM | GI50 (CCRF-CEM): 14.5 µM | CC50 (CCRF-CEM; read-out: LC50): > 100 µM | IC50 (MCF-7 (Breast cancer); Homo sapiens, MCF7, MCF-7, MTT, 48 h, mean ± SD from triplicates): 4.4 ± 0.26 µM | Selectivity index (MCF-7 (Breast cancer); IC50 HSF cells / IC50 MCF-7): 11.02 | IC50 (PC-3 (Prostate cancer); Homo sapiens, PC-3, MTT, 48 h, mean ± SD from triplicates): 12.4 ± 0.62 µM | Selectivity index (PC-3 (Prostate cancer); IC50 HSF cells / IC50 PC-3): 3.91 | TGI (MDA-MB-231/ATCC): 26.8 µM | TGI (KM12 [1]): >100 µM | TGI (full NCI 59 cell panel; HL-60(TB), CCRF-CEM, MOLT-4, K-562, SR, RPMI-8226, HCC-2998, HCT-15, HCT-116, KM12, U250, M14, UACC-257, OVCAR-8, SN12C, 786-0, T-47D, BT-549): more than 100 µM | Full panel MG-MID (full NCI 59 cell panel; mean graph midpoint based on GI50, full NCI 59 cell panel): 20.45 µM | GI50 (HS 578 T): 12.7 µM | CC50 (HS 578 T; read-out: LC50): > 100 µM | GI50 (OVCAR-4; OVCAR-4): 13.4 µM | CC50 (OVCAR-4; OVCAR-4, read-out: LC50): 76.7 µM | TGI (RPMI-8226): >100 µM | GI50 (OVCAR-3; OVCAR-3): 11.7 µM | CC50 (OVCAR-3; OVCAR-3, read-out: LC50): > 100 µM | GI50 (HT29; HT-29): 18.4 µM | CC50 (HT29; HT-29, read-out: LC50): > 100 µM | TGI (SK-MEL-28): 22.5 µM | GI50 (EKVX): 10.4 µM | CC50 (EKVX; read-out: LC50): 71.7 µM | GI50 (SK-MEL-5; SK-MEL-5): 19.4 µM | CC50 (SK-MEL-5; SK-MEL-5, read-out: LC50): 95.8 µM | TGI (SN12C): >100 µM | GI50 (M14; M14): > 100 µM | CC50 (M14; M14, read-out: LC50): > 100 µM | GI50 (T-47D): 45.6 µM | CC50 (T-47D; read-out: LC50): > 100 µM | GI50 (NCI-H522; NCI-H522): 17.1 µM | CC50 (NCI-H522; NCI-H522, read-out: LC50): 85 µM | GI50 (KM12 [2]; KM12): 16.1 µM | CC50 (KM12 [2]; KM12, read-out: LC50): > 100 µM | percentage of S-phase cells (MCF-7 cells): 36.29%
